Laboratory results as given in patent US10422791B2, “Haptens and conjugates derived from pyocyanin, antibodies thereof, and immunochemical method for detecting infections caused by Pseudomonas aeruginosa” (priority 2013, dated 2019).

Experiments:
As230 antiserum = assay: Cross-reactivity determinations in the indirect competitive ELISA As230/PC1-BSA (AE); type: binding, New Zealand white rabbits; details: for % RC (cross-reactivity): (IC50 1-hydroxyphenazine/IC50 phenazine compound)x100; for IC50: calibration curves in PBST, coating antigen PC1-BSA (AE), antiserum As230
Procedure: The MALDI-TOF-MS mass spectrometer (mass spectrometer with laser assisted by ionization/desorption matrix with flight time) which it uses to characterize the conjugates of protein was a Bruker 200-Hz SmartBeam (Bruker-Daltonics, Leipzig, Germany). The detection was performed in the positive ion mode, ionized with a laser power set at 70% of the maximum laser intensity of the instrument at a frequency of 10-100 Hz. The pH and the conductivity of all the buffers and solutions was measured with a 540 GLP phMeter and a LF 340 conductivity meter, respectively (WTW, Weilheim, Germany). The polystyrene microtiter plates were from Nunc (Maxisorp, Roskilde, Denmark). The washing steps were carried out using a microplate washer (ELx405 HT (BioTek, Vinooski, Vt., USA)). The absorbencies were read in a SpectramaxPlus (Molecular Devices, Sunnyvale, Calif.) in a wavelength mode of 450 nm. The competition curves were analysed with a four-parameter equation using the SoftmaxPro v4.7 (Molecular Devices) and GraphPad Prism v 4 (GraphPad Software Inc, San Diego, Calif.) software. The standard curve was adjusted to a logistical equation of four parameters according to the formula y=(A−B/[1−(x/C)D])+B, where A is the maximum absorbance, B is the minimum absorbance, C is the concentration which produces 50% of the difference between the maximum and minimum absorbance (or IC50), and D is the gradient in the point of inflection of the sigmoidal curve. Unless indicated otherwise, the data shown correspond to the mean of at least two replicates.
The polyclonal antiserums As230, As231 and As232 were obtained by the immunization of New Zealand white rabbits (female) with weights around 1-2 kg with PC1-HCH (MA) following a protocol already described by Ballesteros et al. (Analytica Chimica Acta 1997, 347, 139). The evolution of the titers of antibodies was assessed by measuring the binding of serial solutions of each antiserum to microtiter plates coated with the homologous BSA conjugate. Once acceptable titers of antibodies are obtained, the animals were exsanguinated and the blood was collected in Vacutainer tubes provided with serum separation gel. The antiserums were obtained by centrifugation and were stored at −80° C. in the presence of 0.02% NaN3.
The microtiter plates were coated with PC1-BSA (AE) (0.125 μg/ml with coating buffer 100 μL/well) during 4 h at 25° C. with adhesive sealants. Then, the plates were washed four times with PBST (300 μL/well) before adding the standards (1-hydroxyphenazine or another type of related analytes, at different concentrations from 1000 nM to 0 nM in PBhST), and the samples at different concentrations (50 μl/well), followed by the As230 antiserum solution (1/8000 dilution in PBhST, 50 μl/well). After 30 min at ambient temperature, the plates were washed a further nine times with PBST and the anti-IgG-HRP solution was added (1/6000 in PBST, 100 μl/well). After 30 min of incubation at ambient temperature, the microplates were again washed four times with PBST and the substrate solution was added (100 μl/well) and the enzyme reaction was stopped after 30 min at ambient temperature by H2SO4 4 N (50 μl/well). The absorbencies were measured at 450 nm. The standard curve was adjusted to a logistical equation of four parameters according to the formula y=(A−B/[1−(x/C) D])+B, where A is the maximum absorbance, B is the minimum absorbance, C is the concentration that produces 50% of the difference between the maximum absorbance and minimum absorbance of the absorbance (or IC50), and D is gradient in the point of inflection of the sigmoidal curve. The limit of detection (LOD) is defined as the concentration which gives 90% response of the maximum absorbance (IC90) (see FIG. 1 and table 1).
Stock solutions were prepared of different compounds structurally related with pyocyanin and 1-hydroxyphenazine (10 mM in dimethyl sulfoxide) and they were stored at 4° C. […]

[1] = Conversion of pyocyanin into 1-hydroxyphenazine by NaOH, controlled by HPLC-UV; type: physicochemical; details: 1 M NaOH, 20 min at a.t., phenazine as internal standard
Procedure: A 2M NaOH solution (250 μL) was added to a vial containing pyocyanin (10 mM, 25 μL) in 10 mM PBS (85 μL), previously spiked with phenazine (500 μM, 140 μL). The progress of the reaction was monitored by extracting aliquots (10 μL) from the reaction solution at various time intervals, diluting them with 250 mM PBS (90 μL) and adding 1 M HCl (10 μL) to neutralize the pH.
Therefore, it was necessary to develop a simple method to convert pyocyanin in 1-hydroxyphenazine with a good yield. This could be achieved by treating pyocyanin solutions with 1 M NaOH during 20 min at a.t. […] As shown in FIG. 2 (bottom), a good correlation was observed (R^2=0.943) between the sample measurements and the spiked samples for the detection of pyocyanin once hydrolyzed.

Row | Structure (SMILES) | % RC (cross-reactivity) (As230 antiserum) | IC50 (As230 antiserum) | % RC (cross-reactivity) (As230 antiserum; listed as pyocyanin) | conversion of pyocyanin in 1-hydroxyphenazine (hydrolysis of the methyl group) [1]
1 | COS(=O)(=O)[O-].C[n+]1c2ccccc2nc2ccccc21 [Methyl 5-methylphenazine sulfate] | 0.4% | 140 nM | – | –
2 | O=C(O)c1ccc2nc3ccccc3nc2c1 [Phenazine-2-carboxylic acid] | <0.1% | > 800 nM | – | –
3 | c1ccc2nc3ccccc3nc2c1 [Phenazine] | <0.1% | > 800 nM | – | –
4 | Cn1c2cccc(=O)c-2nc2ccccc21 [Pyocyanin, pyocyanin] | <0.1% | > 800 nM | less than 0.1% | quantitative
5 | Oc1cccc2nc3ccccc3nc12 [1-hydroxyphenazine] | 100% | 0.62 nM | – | –
